{"source": "ChEMBL document CHEMBL4184111", "about": "“Small molecule immuno-oncology therapeutic agents” (Bioorg Med Chem Lett, 2018)", "key": {"[1]": {"target": "eIF-2-alpha kinase GCN2 (Homo sapiens, UniProt Q9P2K8)", "sequence (Q9P2K8 whole entry, the tested form may be a part)": "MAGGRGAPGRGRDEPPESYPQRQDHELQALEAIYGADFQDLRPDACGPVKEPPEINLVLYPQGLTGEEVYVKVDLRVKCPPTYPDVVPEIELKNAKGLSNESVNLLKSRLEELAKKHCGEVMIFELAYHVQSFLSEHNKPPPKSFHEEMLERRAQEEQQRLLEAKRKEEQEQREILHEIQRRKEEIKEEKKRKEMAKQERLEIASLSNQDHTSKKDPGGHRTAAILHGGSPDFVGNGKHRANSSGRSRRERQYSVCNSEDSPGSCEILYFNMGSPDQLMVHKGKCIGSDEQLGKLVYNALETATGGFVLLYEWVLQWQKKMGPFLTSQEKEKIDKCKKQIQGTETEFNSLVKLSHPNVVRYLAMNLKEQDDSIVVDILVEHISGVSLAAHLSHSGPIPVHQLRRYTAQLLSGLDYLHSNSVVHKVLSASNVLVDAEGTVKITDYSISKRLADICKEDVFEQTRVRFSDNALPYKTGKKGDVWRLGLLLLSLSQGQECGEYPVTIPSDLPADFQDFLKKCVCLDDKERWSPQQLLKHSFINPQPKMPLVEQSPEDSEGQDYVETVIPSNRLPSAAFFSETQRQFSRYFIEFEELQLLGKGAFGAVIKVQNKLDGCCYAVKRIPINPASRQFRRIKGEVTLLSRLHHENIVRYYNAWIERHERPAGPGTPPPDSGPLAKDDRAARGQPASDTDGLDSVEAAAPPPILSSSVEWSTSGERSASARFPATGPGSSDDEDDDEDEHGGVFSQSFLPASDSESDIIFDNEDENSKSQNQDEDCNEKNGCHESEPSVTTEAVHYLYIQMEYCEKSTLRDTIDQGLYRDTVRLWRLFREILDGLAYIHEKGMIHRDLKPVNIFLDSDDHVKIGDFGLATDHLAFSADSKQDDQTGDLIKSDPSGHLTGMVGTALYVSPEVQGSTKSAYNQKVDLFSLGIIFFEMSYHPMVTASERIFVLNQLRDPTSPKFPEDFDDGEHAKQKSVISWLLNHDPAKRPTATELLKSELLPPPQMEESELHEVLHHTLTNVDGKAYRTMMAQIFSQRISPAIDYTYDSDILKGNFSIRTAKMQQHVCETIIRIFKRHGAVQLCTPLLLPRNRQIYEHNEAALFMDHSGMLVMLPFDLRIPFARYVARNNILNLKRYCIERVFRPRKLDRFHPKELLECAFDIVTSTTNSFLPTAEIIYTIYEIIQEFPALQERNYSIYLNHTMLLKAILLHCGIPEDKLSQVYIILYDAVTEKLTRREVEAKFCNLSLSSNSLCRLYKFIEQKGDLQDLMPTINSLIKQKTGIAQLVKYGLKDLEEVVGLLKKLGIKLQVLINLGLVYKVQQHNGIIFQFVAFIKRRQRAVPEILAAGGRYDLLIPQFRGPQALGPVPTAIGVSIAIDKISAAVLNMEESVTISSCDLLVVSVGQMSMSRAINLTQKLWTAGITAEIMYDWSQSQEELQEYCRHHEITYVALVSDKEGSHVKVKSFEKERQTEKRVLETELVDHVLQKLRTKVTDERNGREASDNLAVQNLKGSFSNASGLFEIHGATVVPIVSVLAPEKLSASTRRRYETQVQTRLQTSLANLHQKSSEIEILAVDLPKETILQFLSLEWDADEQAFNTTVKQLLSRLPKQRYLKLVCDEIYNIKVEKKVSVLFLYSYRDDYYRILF", "experiment": "Inhibition of GCN2 (unknown origin) using GFP--fused eIF2alpha as substrate preincubated for 20 mins followed by substrate and ATP addition measured after 90 mins by TR-FRET assay"}, "[2]": {"target": "Tyrosine-protein kinase SYK (Homo sapiens, UniProt P43405)", "experiment": "Inhibition of N-terminal GST-tagged human SYK expressed in baculovirus infected Sf9 insect cells using Biotin-Aha-Aha-KEDPDYEWPSAKK as substrate after 90 mins by flash plate assay"}, "[3]": {"target": "Programmed cell death protein 1 (Homo sapiens, UniProt Q15116)", "sequence (Q15116 whole entry)": "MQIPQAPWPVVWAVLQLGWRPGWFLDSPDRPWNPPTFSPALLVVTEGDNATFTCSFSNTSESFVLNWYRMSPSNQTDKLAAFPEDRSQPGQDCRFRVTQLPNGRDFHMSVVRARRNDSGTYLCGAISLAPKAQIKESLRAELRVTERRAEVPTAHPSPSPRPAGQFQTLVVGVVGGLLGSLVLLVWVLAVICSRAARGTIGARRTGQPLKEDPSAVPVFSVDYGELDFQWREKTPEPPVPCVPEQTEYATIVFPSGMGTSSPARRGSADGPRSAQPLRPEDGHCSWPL", "experiment": "Inhibition of His-tagged PD-L1 binding to PD-1-Ig (unknown origin) preincubated with PD-L1 for 15 mins followed by PD-1-Ig addition measured after 15 mins by HTRF binding assay"}, "[4]": {"target": "Mitogen-activated protein kinase kinase kinase kinase 1 (Homo sapiens, UniProt Q92918)", "sequence (Q92918 whole entry, the tested form may be a part)": "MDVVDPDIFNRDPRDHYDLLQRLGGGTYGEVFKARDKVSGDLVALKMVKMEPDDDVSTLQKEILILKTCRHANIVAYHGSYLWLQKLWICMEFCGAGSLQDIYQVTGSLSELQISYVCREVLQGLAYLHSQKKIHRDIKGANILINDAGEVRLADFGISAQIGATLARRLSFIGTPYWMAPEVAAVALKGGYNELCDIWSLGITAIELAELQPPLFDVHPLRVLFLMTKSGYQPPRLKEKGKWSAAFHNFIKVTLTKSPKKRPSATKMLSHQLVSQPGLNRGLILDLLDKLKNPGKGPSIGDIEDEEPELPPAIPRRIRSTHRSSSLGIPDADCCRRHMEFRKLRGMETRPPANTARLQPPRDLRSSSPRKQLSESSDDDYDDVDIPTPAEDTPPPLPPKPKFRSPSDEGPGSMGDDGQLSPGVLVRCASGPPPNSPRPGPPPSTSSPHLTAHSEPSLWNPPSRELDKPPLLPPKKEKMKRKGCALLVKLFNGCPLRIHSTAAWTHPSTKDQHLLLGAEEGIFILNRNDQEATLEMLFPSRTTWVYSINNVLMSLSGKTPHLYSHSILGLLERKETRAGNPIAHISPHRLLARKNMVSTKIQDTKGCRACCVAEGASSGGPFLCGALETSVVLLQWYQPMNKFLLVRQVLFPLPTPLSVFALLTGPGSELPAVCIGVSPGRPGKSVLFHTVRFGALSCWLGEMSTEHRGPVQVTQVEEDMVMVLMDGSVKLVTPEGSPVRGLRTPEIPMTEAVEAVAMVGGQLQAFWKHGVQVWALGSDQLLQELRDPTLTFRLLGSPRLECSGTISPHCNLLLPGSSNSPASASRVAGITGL", "experiment": "Inhibition of N-terminal GST-tagged human HPK1 (1 to 346 residues) after 30 mins in presence of ATP by indirect ELISA"}, "[5]": {"target": "T1, Arginase-2, mitochondrial (Homo sapiens, UniProt P78540)", "T1 sequence (P78540 whole entry)": "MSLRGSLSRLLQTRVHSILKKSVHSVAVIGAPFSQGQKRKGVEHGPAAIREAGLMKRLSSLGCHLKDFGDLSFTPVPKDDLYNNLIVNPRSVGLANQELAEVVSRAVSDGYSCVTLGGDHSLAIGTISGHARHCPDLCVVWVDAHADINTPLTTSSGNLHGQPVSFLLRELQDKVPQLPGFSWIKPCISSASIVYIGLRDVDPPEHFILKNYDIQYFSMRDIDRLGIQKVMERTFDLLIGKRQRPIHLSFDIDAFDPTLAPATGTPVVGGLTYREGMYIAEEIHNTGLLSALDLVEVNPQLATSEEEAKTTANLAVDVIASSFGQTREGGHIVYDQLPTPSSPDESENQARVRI", "experiment": "Inhibition of arginase 2 (unknown origin)"}, "[6]": {"experiment": "Half life in rat", "assay_type": "ADME, organism-based", "conditions": "in vivo"}, "[7]": {"experiment": "Inhibition of arginase (unknown origin)", "design": "species or system Homo sapiens"}}}
{"smiles": "CC(C)C1(O)C(=O)Nc2cc(Nc3nc4c(-c5cnn(C)c5)nccn4n3)ccc21", "note": "(stereo not given)", "values": [{"measurement": "IC50", "setting": "[1]", "value": "300 to 3000", "unit": "nM"}, {"measurement": "IC50", "setting": "[2]", "value": "100 to 300", "unit": "nM"}]}
{"smiles": "COc1cc(OCc2cccc(-c3ccccc3)c2C)cc(OC)c1CNCC1CC(=O)N1", "note": "(stereo not given)", "values": [{"measurement": "IC50", "setting": "[3]", "value": "< 50", "unit": "nM"}]}
{"smiles": "CN1CCN(c2ccc3[nH]c(-c4c(N)c5ccsc5[nH]c4=O)nc3c2)CC1", "values": [{"measurement": "IC50", "setting": "[4]", "value": "< 50", "unit": "nM"}]}
{"smiles": "C[C@H](O)[C@H](NC(=O)N[C@@H](CC(N)=O)c1nnc([C@@H](N)CO)s1)C(=O)O", "values": [{"measurement": "IC50", "setting": "[3]", "value": "< 50", "unit": "nM"}]}
{"smiles": "N=C(NO)NCC[C@H](N)C(=O)O", "note": "[NOR-NOHA]", "values": [{"measurement": "Ki", "setting": "[5]", "value": 51, "unit": "nM"}, {"measurement": "half-life", "setting": "[6]", "value": "15 to 30", "unit": "min"}]}
{"smiles": "O[C@H]1CC[C@H](n2cc(Nc3ncc4nnn(-c5ccc(Cl)c(F)c5)c4n3)cn2)CC1", "values": [{"measurement": "IC50", "setting": "[1]", "value": "< 300", "unit": "nM"}]}
{"smiles": "CN1CCN(c2ccc3nc(-c4c(N)c5sccc5[nH]c4=O)[nH]c3c2)CC1", "values": [{"measurement": "IC50", "setting": "[4]", "value": "< 50", "unit": "nM"}]}
{"smiles": "C[C@H](N)C(=O)N1C[C@H](CCCB(O)O)[C@](N)(C(=O)O)C1", "values": [{"measurement": "IC50", "setting": "[7]", "value": 98, "unit": "nM"}]}
